“Also recorded” adds a separate entry of the source. No end group written: not given here.
How the values were obtained:
[1] = tested on: T lymphocytes; conditions: background art; cited from earlier work
[2] = tested on: patients with Ragweed Hay Fever; assay: double-blind placebo-controlled phase II study, patient-diary hay fever symptom counts; format: in vivo, human; conditions: for Average # Weekly Symptoms, Severe / Average # Weekly Symptoms, Total / Average # Weekly Symptoms, Mild: average per subject over weeks 3-12; for hay fever symptoms compared with placebo group (in words): 12 weeks
From the text: Each group was given a subcutaneous injection three times a week and an intravenous injection once a week; in the first group the first injection was thymopentin while the second was placebo, in the second group the first injection was placebo and the second thymopentin, while in the third group both injections were placebo. […] The application of the present invention is illustrated by the clinical study on thymopentin in the treatment of patients with Ragweed Hay Fever given in the Example which follows. Thirty (30) patients with a proven history of ragweed hay fever, who fulfill all of the inclusion criteria and none of the exclusion criteria, were enrolled in this single site study. This invention was a placebo-controlled phase II safety and efficacy study of Thymopentin (TP5) in the treatment of patients with Ragwood Hay Fever. Thirty (30) patients were assigned to either TP5 or placebo according to a double blind randomization schedule. Ten (10) patients were assigned to each of three (3) treatment groups described as follows. Group 1 received 1.0 ml TP5 (50 mg/ml) subcutaneously three (3) times per week and 5.0 ml placebo intravenously once weekly for twelve (12) weeks. Group 2 received 1.0 ml placebo subcutaneously three (3) times per week and 5.0 ml TP5 (20 mg/ml) intravenously once weekly for twelve (12) weeks. Group 3 received 1.0 ml placebo subcutaneously three (3) times per week and 5.0 ml placebo intravenously once weekly for twelve (12) weeks. 1. Each patient received subcutaneous injections three (3) times per week and one intravenous injection per week for twelve weeks, according to the group randomization schedule described above. 2. All patients received a diary in which allergy medication (chlortrimeton) taken during the course of the study and symptoms related to Ragweed Hay Fever were documented. Patients received specific instructions pertaining to continued maintenance of their symptom and medication diaries. The diaries were reviewed weekly and returned upon termination of treatment. Each of the thirty subjects recorded twice daily the occurrence of five symptoms using the mutually exclusive scores "none", "mild", and "severe". The efficacy of treatment was determined by comparison of the average weekly number of mild and severe symptoms per subject. In one analysis, a score was created for each subject based upon the number of times certain symptoms were noted over the ten-week period of study. Each occurrence of a mild or severe symptom was scored as "1" and the average weekly score over the ten weeks for which data were collected was computed for each subject. Pair-wise comparisons were made among the three groups using a standard t-test. […] A more detailed analysis used a repeated measures analysis of variance, in which the total weekly symptoms were compared on a week-by-week basis. The results are presented in Table II and graphically in FIGS. 1 through 3. This analysis indicates high significance among the three groups with respect to severe symptoms and all symptoms.

Substance: RKDVY [TP5, H-ARG-LYS-ASP-VAL-TYR-OH]
- differentiation of T lymphocytes (in words) [1]: selectively stimulate the differentiation of T lymphocytes
- Average number of symptoms per week per subject, Cough Mild ([2]; Group 1 (TP5 sc)): 0.14
- Average number of symptoms per week per subject, Cough Sev. ([2]; Group 1 (TP5 sc)): 0.02
- Average number of symptoms per week per subject, Itchy Eyes Mild ([2]; Group 1 (TP5 sc)): 2.45
- Average number of symptoms per week per subject, Itchy Eyes Sev. ([2]; Group 1 (TP5 sc)): 0.18
- Average number of symptoms per week per subject, Red Eyes Mild ([2]; Group 1 (TP5 sc)): 1.12
- Average number of symptoms per week per subject, Red Eyes Sev. ([2]; Group 1 (TP5 sc)): 0.12
- Average number of symptoms per week per subject, Runny Nose Mild ([2]; Group 1 (TP5 sc)): 3.51
- Average number of symptoms per week per subject, Runny Nose Sev. ([2]; Group 1 (TP5 sc)): 1.86
- Average number of symptoms per week per subject, Sneezing Mild ([2]; Group 1 (TP5 sc)): 2.97
- Average number of symptoms per week per subject, Sneezing Sev. ([2]; Group 1 (TP5 sc)): 0.46
- Average # Weekly Symptoms, Severe ([2]; Group 1, TP5 50 mg s.c. 3x/week, p vs placebo .1382): 2.64
- Average # Weekly Symptoms, Total ([2]; Group 1, TP5 50 mg s.c. 3x/week, p vs placebo .1394): 12.84
- Average # Weekly Symptoms, Mild ([2]; Group 1, TP5 50 mg s.c. 3x/week, p vs placebo .3059): 10.20
- hay fever symptoms compared with placebo group (in words) ([2]; Group 1, thymopentin 50 mg subcutaneously three times per week, listed as Thymopentin): the difference from placebo is not statistically significant; also recorded: decreasing the number of severe hay fever symptoms
- hay fever symptoms compared with placebo group (in words) ([2]; Group 1, thymopentin 50 mg subcutaneously three times per week, listed as thymopentin): experienced fewer symptoms than group 3; also recorded: effective regimens to palliate allergic symptoms
- Total Mild & Severe Symptoms Combined, average weekly number ([2]; Group 1 TP5 s.c., week 3): 5.78
- Total Mild Symptoms, average weekly number ([2]; Group 1 TP5 s.c., week 3): 5.22
- Total Severe Symptoms, average weekly number ([2]; Group 1 TP5 s.c., week 3): 0.56
- Total Mild & Severe Symptoms Combined, average weekly number ([2]; Group 1 TP5 s.c., week 4): 9.22
- Total Mild Symptoms, average weekly number ([2]; Group 1 TP5 s.c., week 4): 8.11
- Total Severe Symptoms, average weekly number ([2]; Group 1 TP5 s.c., week 4): 1.11
- Total Mild & Severe Symptoms Combined, average weekly number ([2]; Group 1 TP5 s.c., week 5): 9.78
- Total Mild Symptoms, average weekly number ([2]; Group 1 TP5 s.c., week 5): 9.00
- Total Severe Symptoms, average weekly number ([2]; Group 1 TP5 s.c., week 5): 0.78
- Total Mild & Severe Symptoms Combined, average weekly number ([2]; Group 1 TP5 s.c., week 6): 11.56
- Total Mild Symptoms, average weekly number ([2]; Group 1 TP5 s.c., week 6): 10.11
- Total Severe Symptoms, average weekly number ([2]; Group 1 TP5 s.c., week 6): 1.44
- Total Mild & Severe Symptoms Combined, average weekly number ([2]; Group 1 TP5 s.c., week 7): 14.44
- Total Mild Symptoms, average weekly number ([2]; Group 1 TP5 s.c., week 7): 13.11
- Total Severe Symptoms, average weekly number ([2]; Group 1 TP5 s.c., week 7): 1.33
- Total Mild & Severe Symptoms Combined, average weekly number ([2]; Group 1 TP5 s.c., week 8): 16.33
- Total Mild Symptoms, average weekly number ([2]; Group 1 TP5 s.c., week 8): 14.44
- Total Severe Symptoms, average weekly number ([2]; Group 1 TP5 s.c., week 8): 1.89
- Total Mild & Severe Symptoms Combined, average weekly number ([2]; Group 1 TP5 s.c., week 9): 19.67
- Total Mild Symptoms, average weekly number ([2]; Group 1 TP5 s.c., week 9): 18.56
- Total Severe Symptoms, average weekly number ([2]; Group 1 TP5 s.c., week 9): 1.11
- Total Mild & Severe Symptoms Combined, average weekly number ([2]; Group 1 TP5 s.c., week 10): 17.78
- Total Mild Symptoms, average weekly number ([2]; Group 1 TP5 s.c., week 10): 15.22
- Total Severe Symptoms, average weekly number ([2]; Group 1 TP5 s.c., week 10): 2.56
- Total Mild & Severe Symptoms Combined, average weekly number ([2]; Group 1 TP5 s.c., week 11): 16.89
- Total Mild Symptoms, average weekly number ([2]; Group 1 TP5 s.c., week 11): 13.11
- Total Severe Symptoms, average weekly number ([2]; Group 1 TP5 s.c., week 11): 3.78
- Total Mild & Severe Symptoms Combined, average weekly number ([2]; Group 1 TP5 s.c., week 12): 5.89
- Total Mild Symptoms, average weekly number ([2]; Group 1 TP5 s.c., week 12): 5.67
- Total Severe Symptoms, average weekly number ([2]; Group 1 TP5 s.c., week 12): 0.22
- Average number of symptoms per week per subject, Cough Mild ([2]; Group 2 (TP5 iv)): 0.48
- Average number of symptoms per week per subject, Cough Sev. ([2]; Group 2 (TP5 iv)): 0.03
- Average number of symptoms per week per subject, Itchy Eyes Mild ([2]; Group 2 (TP5 iv)): 0.84
- Average number of symptoms per week per subject, Itchy Eyes Sev. ([2]; Group 2 (TP5 iv)): 0.25
- Average number of symptoms per week per subject, Red Eyes Mild ([2]; Group 2 (TP5 iv)): 0.75
- Average number of symptoms per week per subject, Red Eyes Sev. ([2]; Group 2 (TP5 iv)): 0.08
- Average number of symptoms per week per subject, Runny Nose Mild ([2]; Group 2 (TP5 iv)): 3.03
- Average number of symptoms per week per subject, Runny Nose Sev. ([2]; Group 2 (TP5 iv)): 0.80
- Average number of symptoms per week per subject, Sneezing Mild ([2]; Group 2 (TP5 iv)): 2.33
- Average number of symptoms per week per subject, Sneezing Sev. ([2]; Group 2 (TP5 iv)): 0.61
- Average # Weekly Symptoms, Total ([2]; Group 2, TP5 100 mg i.v. once weekly, p vs placebo .0145): 9.20
- Average # Weekly Symptoms, Severe ([2]; Group 2, TP5 100 mg i.v. once weekly, p vs placebo .0232): 1.77
- Average # Weekly Symptoms, Mild ([2]; Group 2, TP5 100 mg i.v. once weekly, p vs placebo .0257): 7.43
- hay fever symptoms compared with placebo group (in words) ([2]; Group 2, thymopentin 100 mg intravenously once per week, listed as Thymopentin): statistically significant difference from group 3; also recorded: decreasing the number of severe hay fever symptoms
- hay fever symptoms compared with placebo group (in words) ([2]; Group 2, thymopentin 100 mg intravenously once per week, listed as thymopentin): This difference was statistically significant for group 2; also recorded: effective regimens to palliate allergic symptoms
- Total Mild & Severe Symptoms Combined, average weekly number ([2]; Group 2 TP5 i.v., week 3): 5.43
- Total Mild Symptoms, average weekly number ([2]; Group 2 TP5 i.v., week 3): 4.43
- Total Severe Symptoms, average weekly number ([2]; Group 2 TP5 i.v., week 3): 1.0
- Total Mild & Severe Symptoms Combined, average weekly number ([2]; Group 2 TP5 i.v., week 4): 8.86
- Total Mild Symptoms, average weekly number ([2]; Group 2 TP5 i.v., week 4): 8.43
- Total Severe Symptoms, average weekly number ([2]; Group 2 TP5 i.v., week 4): 0.43
- Total Mild & Severe Symptoms Combined, average weekly number ([2]; Group 2 TP5 i.v., week 5): 7.00
- Total Mild Symptoms, average weekly number ([2]; Group 2 TP5 i.v., week 5): 6.71
- Total Severe Symptoms, average weekly number ([2]; Group 2 TP5 i.v., week 5): 0.29
- Total Mild & Severe Symptoms Combined, average weekly number ([2]; Group 2 TP5 i.v., week 6): 10.86
- Total Mild Symptoms, average weekly number ([2]; Group 2 TP5 i.v., week 6): 9.29
- Total Severe Symptoms, average weekly number ([2]; Group 2 TP5 i.v., week 6): 1.57
- Total Mild & Severe Symptoms Combined, average weekly number ([2]; Group 2 TP5 i.v., week 7): 9.00
- Total Mild Symptoms, average weekly number ([2]; Group 2 TP5 i.v., week 7): 8.00
- Total Severe Symptoms, average weekly number ([2]; Group 2 TP5 i.v., week 7): 1.00
- Total Mild & Severe Symptoms Combined, average weekly number ([2]; Group 2 TP5 i.v., week 8): 11.00
- Total Mild Symptoms, average weekly number ([2]; Group 2 TP5 i.v., week 8): 8.57
- Total Severe Symptoms, average weekly number ([2]; Group 2 TP5 i.v., week 8): 2.43
- Total Mild & Severe Symptoms Combined, average weekly number ([2]; Group 2 TP5 i.v., week 9): 8.14
- Total Mild Symptoms, average weekly number ([2]; Group 2 TP5 i.v., week 9): 7.71
- Total Severe Symptoms, average weekly number ([2]; Group 2 TP5 i.v., week 9): 0.43
- Total Mild & Severe Symptoms Combined, average weekly number ([2]; Group 2 TP5 i.v., week 10): 5.14
- Total Mild Symptoms, average weekly number ([2]; Group 2 TP5 i.v., week 10): 4.71
- Total Severe Symptoms, average weekly number ([2]; Group 2 TP5 i.v., week 10): 0.43
- Total Mild & Severe Symptoms Combined, average weekly number ([2]; Group 2 TP5 i.v., week 11): 5.43
- Total Mild Symptoms, average weekly number ([2]; Group 2 TP5 i.v., week 11): 5.14
- Total Severe Symptoms, average weekly number ([2]; Group 2 TP5 i.v., week 11): 0.29
- Total Mild & Severe Symptoms Combined, average weekly number ([2]; Group 2 TP5 i.v., week 12): 1.71
- Total Mild Symptoms, average weekly number ([2]; Group 2 TP5 i.v., week 12): 1.57
- Total Severe Symptoms, average weekly number ([2]; Group 2 TP5 i.v., week 12): 0.14
- alleviating the symptoms of allergic rhinitis compared to placebo (in words) ([2]; double-blind study, route not specified): statistically significant compared to placebo
- safety (in words) ([2]; general statement): very safe drug
